This passage reports hygroscopicity results from US8685957B1 (Cubist Pharmaceuticals, Inc., priority 2012, dated 2014).

Each structure is given as a SMILES string.

This data set can be described thus: Hygroscopicity experiments by DVS (water vapor sorption). Conditions: relative to amorphous tazobactam arginine and amorphous tazobactam sodium. The class given is physicochemical. How it is done: Analysis by DVS was performed on a VTI SGA-100 water vapor sorption analyser using approximately 18-23 mg of each sample. Each sample was pre-dried at 60° C. for a maximum of 1 hour and then analyzed at 25° C. in 10% relative humidity (RH) steps from 5-95% (adsorption) and then 90-10% RH (desorption). The sample was equilibrated to each humidity level for a maximum of 3 hours or until constant weight was attained. Equilibrium criteria were set at less than 0.0050% weight change within 5 minutes.

Consider `C[C@]1(Cn2ccnn2)[C@H](C(=O)O)N2C(=O)CC2S1(=O)=O` (stereo partly shown) [Tazobactam arginine polymorph Ia, tazobactam arginine], for which the hygroscopicity entry is listed as “low hygroscopicity”.
